# Data published in patent US11149036B2, “3-(1H-pyrazol-4-yl)pyridine allosteric modulators of the M4 muscarinic acetylcholine receptor” (Merck Sharp & Dohme Corp., priority 2017, dated 2021).
# pEC50: −log10 of the molar value.
# Target: T1, human M4 muscarinic acetylcholine receptor (Homo sapiens, UniProt P08173)
# T1 construct: expressed in transfected cells; host or cells: CHO-K1
# T1 sequence (P08173 1-479): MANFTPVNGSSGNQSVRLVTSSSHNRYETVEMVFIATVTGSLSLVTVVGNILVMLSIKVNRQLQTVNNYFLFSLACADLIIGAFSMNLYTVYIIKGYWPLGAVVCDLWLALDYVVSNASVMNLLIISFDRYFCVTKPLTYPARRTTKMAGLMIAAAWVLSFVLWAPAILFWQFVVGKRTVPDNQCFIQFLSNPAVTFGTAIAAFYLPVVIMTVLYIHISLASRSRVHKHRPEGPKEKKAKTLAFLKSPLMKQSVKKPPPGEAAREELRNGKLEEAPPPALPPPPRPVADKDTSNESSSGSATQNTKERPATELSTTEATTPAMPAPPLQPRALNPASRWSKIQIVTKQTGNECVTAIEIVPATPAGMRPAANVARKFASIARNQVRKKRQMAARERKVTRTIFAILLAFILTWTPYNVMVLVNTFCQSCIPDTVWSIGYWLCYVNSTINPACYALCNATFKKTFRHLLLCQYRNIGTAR
# Assay: human FLIPR-based M4 PAM assay (CHO-K1 cells with human M4 receptor and Gaqi5, calcium dye fluorescence)
# Format: cell-based
# Conditions: inflection point (IP) of dose response curve, acetylcholine added at 20% of maximum response, read-out: M4 FLIPPR Hu IP
# Method: (§1) In a typical experiment the M4 muscarinic acetylcholine receptor modulating activity of the compounds of the present invention was determined in accordance with the following experimental method. CHO-K1 cells stably transfected with human M4 receptor and chimeric G-protein Gaqi5 (Coward P, et al., Analytical Biochemistry, 270:242-248 (1999)) are thawed from liquid N2 storage, resuspended in growth medium, plated in black, clear bottom 384 well plates, and incubated 16-20 hours at 37° C., 5% CO2. On the day of assay, growth medium is removed, the cells are washed 2 times with wash buffer, and cells are incubated in dye loading buffer at 37° C., 5% CO2 for ˜1 hour. Following dye loading the cell plates are placed in a FLIPR Tetra instrument and while monitoring dye fluorescence (excitation 470-495 […]), 10 uL of test substance at increasing concentrations is added, and fluorescence values are recorded for 4 min. Next, 10 uL of acetylcholine is added (final concentration calculated so as to achieve 20% of the maximum acetycholine response), and the fluorescence reading is continued for 3.5 min. In some cases, a third addition of acetylcholine (final concentration calculated to achieve 70% of the maximal acetylcholine response) is performed. The resulting dose response curves are fit to a 4 parameter logistic equation and the final result is determined as the inflection point (IP) of the curve
# as §1, with “CHO-K1” for “In a typical experiment the M4 muscarinic acetylcholine receptor modulating activity of the compounds of the present invention was determined in accordance with the following experimental method. CHO-K1”, “Gaqi5” for “Gaqi5 (Coward P, et al., Analytical Biochemistry, 270:242-248 (1999))”, “performed.” for “performed. The resulting dose response curves are fit to a 4 parameter logistic equation and the final result is determined as the inflection point (IP) of the curve”
row,Structure (SMILES),pEC50
1,"CC1(C)NC(=O)c2cc(-c3nc(C#N)ccc3-c3cnn(CC4(F)CCCC4)c3)ccc21 [Example 46, 6-(1,1-dimethyl-3-oxoisoindolin-5-yl)-5-(1-((1-fluorocyclopentyl)methyl)-1H-pyrazol-4-yl)picolinonitrile49]",6.99
2,"N#Cc1ccc(-c2cnn(CC3(F)CCCC3)c2)c(-c2cnc3c(c2)C(=O)N(CCF)C3)n1 [Example 47, 5-(1-((1-fluorocyclopentyl)methyl)-1H-pyrazol-4-yl)-6-(6-(2-fluoroethyl)-5-oxo-6,7-dihydro-5H-pyrrolo[3,4-b]pyridin-3-yl)picolinonitrile]",7.25
3,"Cn1cc2ccc(-c3nc(C#N)ccc3-c3cnn(CC4(F)CCCC4)c3)cc2n1 [Example 48, 5-(1-((1-fluorocyclopentyl)methyl)-1H-pyrazol-4-yl)-6-(2-methyl-2H-indazol-6-yl)picolinonitrile]",7.39
4,"Cc1nc2cc(-c3nc(C#N)ccc3-c3cnn(CC4(F)CCCC4)c3)ccc2o1 [Example 49, 5-(1-((1-fluorocyclopentyl)methyl)-1H-pyrazol-4-yl)-6-(2-methylbenzo[d]oxazol-5-yl)picolinonitrile]",6.97
5,"N#Cc1ccc(-c2cnn(CC3(F)CCCC3)c2)c(-c2cnc3oc(C4CC4)nc3c2)n1 [Example 53, 6-(2-cyclopropyloxazolo[5,4-b]pyridin-6-yl)-5-(1-((1-fluorocyclopentyl)methyl)-1H-pyrazol-4-yl)picolinonitrile]",7.12
6,"Cn1nnc2cc(-c3nc(C#N)ccc3-c3cnn(CC4(F)CCCC4)c3)ccc21 [Example 56, 5-(1-((1-fluorocyclopentyl)methyl)-1H-pyrazol-4-yl)-6-(1-methyl-1H-benzo[1,2,3]triazol-5-yl)picolinonitrile]",7.39
7,"Cc1nc2cc(-c3nc(C#N)ccc3-c3cnn(CC4(F)CCCC4)c3)ccc2n1C [Example 59, 6-(1,2-dimethyl-1H-benzo[d]imidazol-5-yl)-5-(1-((1-fluorocyclopentyl)methyl)-1H-pyrazol-4-yl)picolinonitrile]",7.37
8,"Cc1nc2ccc(-c3nc(C#N)ccc3-c3cnn(CC4(F)CCCC4)c3)cn2n1 [Example 60, 5-(1-((1-fluorocyclopentyl)methyl)-1H-pyrazol-4-yl)-6-(2-methyl-[1,2,4]triazolo[1,5-a]pyridin-6-yl)picolinonitrile]",6.96
9,"N#Cc1ccc(-c2cnn(CC3(F)CCCC3)c2)c(-c2ccc3conc3c2)n1 [Example 62, 6-(benzo[c]isoxazol-6-yl)-5-(1-((1-fluorocyclopentyl)methyl)-1H-pyrazol-4-yl)picolinonitrile]",7.21
10,"Cc1nc2cc(-c3nc(C#N)ccc3-c3cnn(CC4(F)CCCC4)c3)cnc2n1C [Example 63, 6-(2,3-dimethyl-3H-imidazo[4,5-b]pyridin-6-yl)-5-(1-((1-fluorocyclopentyl)methyl)-1H-pyrazol-4-yl)picolinonitrile]",7.20
11,"N#Cc1ccc(-c2cnn(CC3(F)CCCC3)c2)c(-c2ccn3nc(CO)nc3c2)n1 [Example 66, 5-(1-((1-fluorocyclopentyl)methyl)-1H-pyrazol-4-yl)-6-(2-(hydroxymethyl)-[1,2,4]triazolo[1,5-a]pyridin-7-yl)picolinonitrile]",7.05
12,"COc1cc2ccc(-c3nc(C#N)ccc3-c3cnn(C[C@H]4CC[C@H](F)C4)c3)cc2nn1 [Example 67, 5-(1-(((1S,3S)-3-fluorocyclopentyl)methyl)-1H-pyrazol-4-yl)-6-(3-methoxycinnolin-7-yl)picolinonitrile]",7.19
13,"N#Cc1ccc(-c2cnn(C[C@H]3CC[C@H](F)C3)c2)c(-c2ccc3cccnc3c2)n1 [Example 68, 5-(1-(((1S,3S)-3-fluorocyclopentyl)methyl)-1H-pyrazol-4-yl)-6-(quinolin-7-yl)picolinonitrile]",7.42
14,"Cn1cnc2cc(-c3nc(C#N)ccc3-c3cnn(C[C@@H]4CC[C@@H](F)C4)c3)ccc21 [Example 70, 5-(1-(((1R,3R)-3-fluorocyclopentyl)methyl)-1H-pyrazol-4-yl)-6-(1-methyl-1H-benzo[d]imidazol-5-yl)picolinonitrile]",7.31

# Further compounds by rising pEC50, results first:
row,pEC50,Structure (SMILES)
1,7.43,"Cc1nc2cc(-c3nc(C#N)ccc3-c3cnn(CC4(F)CCCC4)c3)ccn2n1 [Example 61, 5-(1-((1-fluorocyclopentyl)methyl)-1H-pyrazol-4-yl)-6-(2-methyl-[1,2,4]triazolo[1,5-a]pyridin-7-yl)picolinonitrile]"
2,7.44,"N#Cc1ccc(-c2cnn(CC3(F)CCCC3)c2)c(-c2ccn3cc(C4CC4)nc3c2)n1 [Example 54, 6-(2-cyclopropylimidazo[1,2-a]pyridin-7-yl)-5-(1-((1-fluorocyclopentyl)methyl)-1H-pyrazol-4-yl)picolinonitrile]"
3,7.46,"N#Cc1ccc(-c2cnn(CC3(F)CCCC3)c2)c(-c2cnc3c(c2)C(=O)N(CC2CC2)C3)n1 [Example 55, 6-(6-(cyclopropylmethyl)-5-oxo-6,7-dihydro-5H-pyrrolo[3,4-b]pyridin-3-yl)-5-(1-((1-fluorocyclopentyl)methyl)-1H-pyrazol-4-yl)picolinonitrile]"
4,7.55,"CCc1nc2cc(-c3nc(C#N)ccc3-c3cnn(CC4(F)CCCC4)c3)ccn2n1 [Example 65, 6-(2-ethyl-[1,2,4]triazolo[1,5-a]pyridin-7-yl)-5-(1-((1-fluorocyclopentyl)methyl)-1H-pyrazol-4-yl)picolinonitrile]"
5,7.57,"N#Cc1ccc(-c2cnn(CC3(F)CCCC3)c2)c(-c2ccn3ccnc3c2)n1 [Example 50, 5-(1-((1-fluorocyclopentyl)methyl)-1H-pyrazol-4-yl)-6-(imidazo[1,2-a]pyridin-7-yl)picolinonitrile]"
6,7.59,"N#Cc1ccc(-c2cnn(CC3C[C@H](F)[C@@H](F)C3)c2)c(-c2ccn3ccnc3c2)n1 [Example 71, 5-(1-(((3S,4S)-3,4-difluorocyclopentyl)methyl)-1H-pyrazol-4-yl)-6-(imidazo[1,2-a]pyridin-7-yl)picolinonitrile]"
7,7.60,"Cc1cn2ccc(-c3nc(C#N)ccc3-c3cnn(C[C@H]4CC[C@H](F)C4)c3)cc2n1 [Example 69, 5-(1-(((1S,3S)-3-fluorocyclopentyl)methyl)-1H-pyrazol-4-yl)-6-(2-methylimidazo[1,2-a]pyridin-7-yl)picolinonitrile]"
8,7.66,"N#Cc1ccc(-c2cnn(CC3(F)CCCC3)c2)c(-c2ccn3cc(C(F)(F)F)nc3c2)n1 [Example 51, 5-(1-((1-fluorocyclopentyl)methyl)-1H-pyrazol-4-yl)-6-(2-(trifluoromethyl)imidazo [1,2-a]pyridin-7-yl)picolinonitrile]"
9,7.66,"COc1cc2ccc(-c3nc(C#N)ccc3-c3cnn(CC4(F)CCCC4)c3)cn2n1 [Example 64, 5-(1-((1-fluorocyclopentyl)methyl)-1H-pyrazol-4-yl)-6-(2-methoxypyrazolo[1,5-a]pyridin-6-yl)picolinonitrile]"
10,7.80,"CCc1cn2ccc(-c3nc(C#N)ccc3-c3cnn(CC4(F)CCCC4)c3)cc2n1 [Example 57, 6-(2-ethylimidazo[1,2-a]pyridin-7-yl)-5-(1-((1-fluorocyclopentyl)methyl)-1H-pyrazol-4-yl)picolinonitrile]"
11,7.82,"N#Cc1ccc(-c2cnn(CC3(F)CCCC3)c2)c(-c2ccn3cc(C(F)F)nc3c2)n1 [Example 58, 6-(2-(difluoromethyl)imidazo [1,2-a]pyridin-7-yl)-5-(1-((1-fluorocyclopentyl)methyl)-1H-pyrazol-4-yl)picolinonitrile]"
12,8.00,"N#Cc1ccc(-c2cnn(CC3(F)CCCC3)c2)c(-c2ccn3cc(Cl)nc3c2)n1 [Example 52, 6-(2-chloroimidazol[1,2-a]pyridin-7-yl)-5-(1-((1-fluorocyclopentyl)methyl)-1H-pyrazol-4-yl)picolinonitrile]"
